Test results from ChEMBL document CHEMBL5137093, “Improving Drug Delivery While Tailoring Prodrug Activation to Modulate Cmax and Cmin by Optimization of (Carbonyl)oxyalkyl Linker-Based Prodrugs of Atazanavir” (J Med Chem, 2022).

How the values were obtained:
[1] = AUClast in Sprague-Dawley rat at 30 mg/kg,po measured upto 24 hrs by UPLC-MS/MS analysis; assay type: ADME, organism-based; parameters: time < 24 hrs, dose 30 mg/kg, route po; conditions: in vivo
[2] = Cmax in Sprague-Dawley rat at 3 mg/kg,po measured upto 24 hrs by UPLC-MS/MS analysis; assay type: ADME, organism-based; parameters: dose 3 mg/kg, time < 24 hrs, route po; conditions: in vivo
[3] = AUClast in Sprague-Dawley rat at 3 mg/kg,po measured upto 24 hrs by UPLC-MS/MS analysis; assay type: ADME, organism-based; parameters: time < 24 hrs, dose 3 mg/kg, route po; conditions: in vivo
[4] = Cmax in Sprague-Dawley rat at 30 mg/kg,po measured upto 24 hrs by UPLC-MS/MS analysis; assay type: ADME, organism-based; parameters: time < 24 hrs, dose 30 mg/kg, route po; conditions: in vivo
[5] = Aqueous solubility of compound at pH 4 by UPLC analysis; assay type: physicochemical; conditions: aqueous medium, read-out: solubility
[6] = Volume of distribution at steady state in Sprague-Dawley rat at 1 mg/kg,iv measured upto 24 hrs by UPLC-MS/MS analysis; assay type: ADME, organism-based; conditions: in vivo, read-out: Vdss
[7] = Cmin in Sprague-Dawley rat at 1 mg/kg,iv measured after 24 hrs by UPLC-MS/MS analysis; assay type: ADME, organism-based; conditions: in vivo, read-out: Cmin
[8] = Half life in Sprague-Dawley rat at 1 mg/kg,iv measured upto 24 hrs by UPLC-MS/MS analysis; assay type: ADME, organism-based; conditions: in vivo
[9] = Tmax in Sprague-Dawley rat at 3 mg/kg,po measured upto 24 hrs by UPLC-MS/MS analysis; assay type: ADME, organism-based; conditions: in vivo
[10] = Ratio of Cmax/Cmin in Sprague-Dawley rat at 3 mg/kg,po measured after 24 hrs by UPLC-MS/MS analysis; assay type: ADME, organism-based; conditions: in vivo
[11] = Ratio of Cmax/Cmin in Sprague-Dawley rat at 1 mg/kg,iv measured after 24 hrs by UPLC-MS/MS analysis; assay type: ADME, organism-based; conditions: in vivo
[12] = biological target: Voltage-gated inwardly rectifying potassium channel KCNH2 (Homo sapiens, UniProt Q12809); experiment: Inhibition of human ERG by patch-clamp assay; assay type: toxicity
[13] = Cmax in Sprague-Dawley rat at 1 mg/kg,iv measured upto 24 hrs by UPLC-MS/MS analysis; assay type: ADME, organism-based; parameters: dose 1 mg/kg, time < 24 hrs, route iv; conditions: in vivo
[14] = Clearance in Sprague-Dawley rat at 1 mg/kg,iv measured upto 24 hrs by UPLC-MS/MS analysis; assay type: ADME, organism-based; conditions: in vivo
[15] = Tmax in Sprague-Dawley rat at 30 mg/kg,po measured upto 24 hrs by UPLC-MS/MS analysis; assay type: ADME, organism-based; conditions: in vivo
[16] = AUClast in Sprague-Dawley rat at 1 mg/kg,iv measured upto 24 hrs by UPLC-MS/MS analysis; assay type: ADME, organism-based; parameters: time < 24 hrs, dose 1 mg/kg, route iv; conditions: in vivo
[17] = Aqueous solubility of compound at pH 6.5 by UPLC analysis; assay type: physicochemical; conditions: aqueous medium, read-out: solubility

Chain of Voltage-gated inwardly rectifying potassium channel KCNH2 (Q12809 whole entry): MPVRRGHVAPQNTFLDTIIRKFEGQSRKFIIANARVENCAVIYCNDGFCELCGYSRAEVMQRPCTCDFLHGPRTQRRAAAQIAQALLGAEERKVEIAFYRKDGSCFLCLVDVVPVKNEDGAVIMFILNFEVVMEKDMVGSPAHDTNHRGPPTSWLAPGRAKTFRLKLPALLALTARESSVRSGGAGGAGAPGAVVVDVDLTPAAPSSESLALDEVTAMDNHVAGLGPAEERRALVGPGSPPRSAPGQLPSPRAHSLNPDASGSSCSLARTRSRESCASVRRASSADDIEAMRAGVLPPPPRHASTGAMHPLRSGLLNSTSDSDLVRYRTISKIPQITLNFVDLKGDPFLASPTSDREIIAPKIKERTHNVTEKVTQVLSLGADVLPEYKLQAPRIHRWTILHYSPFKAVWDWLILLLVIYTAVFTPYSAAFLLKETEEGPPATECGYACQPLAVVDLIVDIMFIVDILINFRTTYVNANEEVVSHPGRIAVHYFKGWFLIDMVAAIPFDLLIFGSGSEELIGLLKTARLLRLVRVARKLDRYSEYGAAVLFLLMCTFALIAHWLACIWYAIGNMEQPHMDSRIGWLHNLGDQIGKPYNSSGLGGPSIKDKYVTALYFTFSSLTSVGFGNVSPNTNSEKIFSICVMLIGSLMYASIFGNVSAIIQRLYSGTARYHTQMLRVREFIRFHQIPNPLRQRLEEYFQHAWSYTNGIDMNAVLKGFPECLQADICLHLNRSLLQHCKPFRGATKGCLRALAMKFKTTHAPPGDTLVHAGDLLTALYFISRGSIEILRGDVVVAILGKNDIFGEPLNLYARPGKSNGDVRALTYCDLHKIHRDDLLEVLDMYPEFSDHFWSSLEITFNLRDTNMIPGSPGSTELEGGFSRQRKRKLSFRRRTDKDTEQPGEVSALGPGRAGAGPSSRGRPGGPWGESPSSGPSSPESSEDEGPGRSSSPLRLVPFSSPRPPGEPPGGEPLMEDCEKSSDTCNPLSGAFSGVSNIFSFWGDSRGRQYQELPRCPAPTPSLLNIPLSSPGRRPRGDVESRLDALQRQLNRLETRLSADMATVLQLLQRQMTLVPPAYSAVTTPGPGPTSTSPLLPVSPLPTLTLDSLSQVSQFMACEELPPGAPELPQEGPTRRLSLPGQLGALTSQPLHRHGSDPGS

AUC(0-t) at 24 h [1]: 20.9 µM·h
Cmax [2]: 266 nM
AUC(0-t) at 24 h [3]: 0.384 µM·h
Cmax [4]: 5110 nM
solubility [5]: < 1 µg/mL
Vd [6]: 1.5 L/kg
concentration at 24 h [7]: 0.28 nM
half-life [8]: 7 h
Tmax [9]: 0.5 h
Ratio [10]: 1064
Ratio [11]: 8978.6
Cmax [13]: 2510 nM
clearance [14]: 38.7 mL/min/kg
Tmax [15]: 3 h
AUC(0-t) at 24 h [16]: 0.636 µM·h
solubility [17]: < 1 µg/mL
SMILES: COC(=O)N[C@H](C(=O)N[C@@H](Cc1ccccc1)[C@@H](O)CN(Cc1ccc(-c2ccccn2)cc1)NC(=O)[C@@H](NC(=O)OC)C(C)(C)C)C(C)(C)C [ATAZANAVIR]
IC50 [12]: ≥ 30 µM
